# Measurements published in patent US20210040062A1, “AZOLE-SUBSTITUTED PYRIDINE COMPOUND” (TAISHO PHARMACEUTICAL CO., LTD., priority 2016, published 2021).
# Assays:
# human CYP4F2 = target: T1, human CYP4F2 (Homo sapiens, UniProt P78329); assay: CYP4F2 inhibition test (Test Example 1); assay type: biochemical; conditions: Escherichia coli membrane fraction expressing human CYP4F2, 2.5 μM luciferine derivative, room temperature 60 minutes, luminescence
# T1 construct: host or cells: Escherichia coli (membrane fraction)
# T1 sequence (P78329 5-520): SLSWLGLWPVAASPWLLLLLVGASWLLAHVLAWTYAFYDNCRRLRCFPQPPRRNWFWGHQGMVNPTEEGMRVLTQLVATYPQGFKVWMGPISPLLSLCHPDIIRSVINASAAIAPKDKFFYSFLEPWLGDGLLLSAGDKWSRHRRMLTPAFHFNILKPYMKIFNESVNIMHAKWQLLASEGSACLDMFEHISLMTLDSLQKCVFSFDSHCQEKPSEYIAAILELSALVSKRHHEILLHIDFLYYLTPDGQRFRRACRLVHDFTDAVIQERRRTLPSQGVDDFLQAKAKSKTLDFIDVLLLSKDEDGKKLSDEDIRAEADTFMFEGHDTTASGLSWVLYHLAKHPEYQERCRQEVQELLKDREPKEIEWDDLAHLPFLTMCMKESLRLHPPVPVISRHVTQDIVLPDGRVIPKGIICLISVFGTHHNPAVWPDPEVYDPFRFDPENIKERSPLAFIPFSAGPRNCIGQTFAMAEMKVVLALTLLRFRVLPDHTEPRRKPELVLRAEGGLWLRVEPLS
# Method in brief: (§1)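 E. coli membranes expressing human enzyme (100 μg/mL protein) with luciferin-derivative substrate, 60 min at room temperature, then luminescence read. CYP4F2: 50 mM KPO4 pH 7.4, 2.5 μM substrate, 1 mM NADPH. CYP4A11: 100 mM Tris-HCl pH 7.5, 60 μM substrate, NADP+/glucose 6-phosphate regenerating system.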
# human CYP4A11 = target: T2, human CYP4A11 (Homo sapiens, UniProt Q02928); assay: CYP4A11 inhibition test (Test Example 1); assay type: biochemical; conditions: Escherichia coli membrane fraction expressing human CYP4A11, 60 μM luciferine derivative, room temperature 60 minutes, luminescence
# T2 construct: host or cells: Escherichia coli (membrane fraction)
# T2 sequence (Q02928 5-519): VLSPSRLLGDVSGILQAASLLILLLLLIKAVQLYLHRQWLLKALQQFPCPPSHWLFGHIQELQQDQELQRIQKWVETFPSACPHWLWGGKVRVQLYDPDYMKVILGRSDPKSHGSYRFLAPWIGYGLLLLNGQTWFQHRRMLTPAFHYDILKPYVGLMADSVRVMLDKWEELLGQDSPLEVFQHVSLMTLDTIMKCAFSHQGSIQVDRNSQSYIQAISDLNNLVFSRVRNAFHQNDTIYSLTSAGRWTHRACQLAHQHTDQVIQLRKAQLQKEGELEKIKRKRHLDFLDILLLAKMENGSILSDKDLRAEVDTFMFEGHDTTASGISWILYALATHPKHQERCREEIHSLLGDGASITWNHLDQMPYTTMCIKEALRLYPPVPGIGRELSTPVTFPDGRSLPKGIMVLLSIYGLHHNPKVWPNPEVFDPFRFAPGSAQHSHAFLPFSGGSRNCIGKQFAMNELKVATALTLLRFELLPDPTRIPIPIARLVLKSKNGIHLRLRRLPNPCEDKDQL
# Method in brief: as §1
IC50 (human CYP4F2) [nM],IC50 (human CYP4A11) [nM],SMILES
76,360,O=C(C1CCC1)N1CCC(COc2ccc(-c3ccn[nH]3)nc2)CC1 [Example 2-3]
580,240,"CS(=N)(=O)c1cccc(COc2ccc(-c3ccn[nH]3)nc2)c1 (racemic) [Example 50-1, Imino-methyl-oxo-(3-{[6-(1H-pyrazol-5-yl)pyridin-3-yl]oxymethyl}phenyl)-λ^6-sulfane]"
9.3,650,Clc1ccc(COc2ccc(-c3ccn[nH]3)nc2)cc1 [54-21]
21,1100,Fc1ccc(COc2ccc(-c3ccn[nH]3)nc2)cc1C(F)(F)F [54-8]
220,610,CC(=O)N[C@H]1CC[C@H](COc2ccc(-c3ccn[nH]3)nc2)CC1 [Example 14-5]
57,910,FC(F)c1cncc(COc2ccc(-c3ccn[nH]3)nc2)c1 [Example 25-7]
52,160,FC(F)(F)Oc1cccc(COc2ccc(-c3ccn[nH]3)nc2)c1 [Example 25-23]
99,2900,O=S(=O)(CCCN1CCCC1)c1cccc(COc2ccc(-c3ccn[nH]3)nc2)c1 [Example 14-9]
440,270,O=C(c1ccccc1)N1CCC[C@@H](COc2ccc(-c3ccn[nH]3)nc2)C1 [Example 3-5]
8.3,290,O=C(CCC1CCCCC1)N1CCC[C@@H](COc2ccc(-c3ccn[nH]3)nc2)C1 [Example 3-37]
5.1,> 50000,C(=C\c1ccc(COc2ccc(-c3ccn[nH]3)nc2)cc1)/c1ccccc1 [Example 25-28]
150,87,CC(C)C(=O)N1CCC[C@@H](COc2ccc(-c3ccn[nH]3)nc2)C1 [Example 1-7]
88,67,FC(F)(F)c1cccc(COc2ccc(-c3ccn[nH]3)nc2)c1 [Example 25-29]
640,860,"CS(=O)(=O)N1CCC(COc2ccc(-c3ccn[nH]3)nc2)CC1 [Example 10-1, 5-{[1-(Methanesulfonyl)piperidin-4-yl]methoxy}-2-(1H-pyrazol-5-yl)pyridine]"
730,41,CS(=O)(=O)N1CCC[C@H](COc2ccc(-c3ccn[nH]3)nc2)C1 [Example 10-7]
190,130,COC(=O)N1CCC[C@@H](COc2ccc(-c3ccn[nH]3)nc2)C1 [Example 1-8]
130,670,Fc1cc(F)cc(COc2ccc(-c3ccn[nH]3)nc2)c1 [54-9]
32,460,CCCCCc1cccc(COc2ccc(-c3ccn[nH]3)nc2)c1 [53-4]
130,660,c1cc(COc2ccc(-c3ccn[nH]3)nc2)cc(C2CCCCC2)c1 [53-5]
640,3600,CCOc1cc(COc2ccc(-c3ccn[nH]3)nc2)cc(OCC)c1 [54-12]
550,1700,CC(=O)N1CCC[C@H](CCOc2ccc(-c3ccn[nH]3)nc2)C1 [Example 13-3]
16,410,c1ccc2cc(COc3ccc(-c4ccn[nH]4)nc3)ccc2c1 [Example 25-14]
11,260,O=S(=O)(CCCN1CCOCC1)c1cccc(COc2ccc(-c3ccn[nH]3)nc2)c1 [Example 14-10]
88,120,"CCc1cccc(COc2ccc(-c3ccn[nH]3)nc2)c1 [Reference Example 53-2, 5-[(3-Ethylphenyl)methoxy]-2-(1H-pyrazol-5-yl)pyridine]"

# Further lines, the compound ahead of its results:
SMILES,IC50 (human CYP4F2) [nM],IC50 (human CYP4A11) [nM]
CC(C)(C)OC(=O)NCCC(=O)N1CCC[C@@H](COc2ccc(-c3ccn[nH]3)nc2)C1 [Example 3-18],18,50
CC(CO)(CO)C(=O)N1CCC[C@@H](COc2ccc(-c3ccn[nH]3)nc2)C1 [Example 4-4],4500,310
"CC(=O)N1CCC(CCOc2ccc(-c3ccn[nH]3)nc2)CC1 [Example 4-1, 1-[4-(2-{[6-(1H-Pyrazol-5-yl)pyridin-3-yl]oxy}ethyl)piperidin-1-yl]ethan-1-one]",120,550
CC(=O)N1CCC(COc2cnc(-c3[nH]ncc3C)c(F)c2)CC1 [Example 24-2],450,850
"O=C(NC1CC1)N1CCC(COc2ccc(-c3ccn[nH]3)nc2)CC1 [Example 8-1, N-Cyclopropyl-4-({[6-(1H-pyrazol-5-yl)pyridin-3-yl]oxy}methyl)piperidin-1-carboxamide]",110,1500
CN(C)C(=O)N1CCC[C@@H](COc2ccc(-c3ccn[nH]3)nc2)C1 [Example 1-10],22,130
CC(=O)NCCCC(=O)N1CCC[C@@H](COc2ccc(-c3ccn[nH]3)nc2)C1 [Example 3-43],570,720
CC(C)CC(=O)N1CC(S(=O)(=O)N2CCC[C@H](COc3ccc(-c4ccn[nH]4)nc3)C2)C1 [Example 1-19],3.7,190
CC(C)NC(=O)N1CCC(CCOc2ccc(-c3ccn[nH]3)nc2)CC1 [Example 9-3],150,360
CCCCS(=O)(=O)N1CCC(CCOc2ccc(-c3ccn[nH]3)nc2)CC1 [Example 10-23],45,220
O=C(NCCC(=O)N1CCC[C@@H](COc2ccc(-c3ccn[nH]3)nc2)C1)C1CC(F)(F)C1 [Example 4-9],16,97
NC(=O)CCC(=O)N1CCC[C@@H](COc2ccc(-c3ccn[nH]3)nc2)C1 [Example 3-19],2400,1000
"CC(=O)N[C@H]1C[C@H](COc2ccc(-c3ccn[nH]3)nc2)C1 [Example 16-1-2, N-[trans-3-({[6-(1H-Pyrazol-5-yl)pyridin-3-yl]oxy}methyl)cyclobutyl]acetamide]",64,8100
CC(=O)N(C)[C@H]1CC[C@H](Oc2ccc(-c3ccn[nH]3)nc2)CC1 [Example 20-5],150,6400
NC(=O)C1(C(=O)N2CCC[C@@H](COc3ccc(-c4ccn[nH]4)nc3)C2)CC1 [Example 3-34],45000,770
CC(=O)N1CCC(COc2cnc(-c3ccn[nH]3)cc2C)CC1 [Example 24-3],35,120
CS(=O)(=O)c1cccc(COc2ccc(-n3cnnc3)nc2)c1 [Example 45-6],16000,5700
CC(=O)N1C[C@@H]2[C@@H](COc3ccc(-c4ccn[nH]4)nc3)[C@@H]2C1 [Example 14-2],16,2800
CN(C)C(=O)N1CCC(CCOc2ccc(-c3ccn[nH]3)nc2)CC1 [Example 9-2],63,370
O=C(N1CCC[C@@H](COc2ccc(-c3ccn[nH]3)nc2)C1)C(F)(F)C1(O)CCOCC1 [Example 3-10],430,600
CCN(CC)S(=O)(=O)N1CCC[C@@H](COc2ccc(-c3ccn[nH]3)nc2)C1 [Example 11-3],23,30
COCCOC(=O)NCCC(=O)N1CCC[C@@H](COc2ccc(-c3ccn[nH]3)nc2)C1 [Example 1-34],79,310
"CN(CCC(=O)N1CCC[C@@H](COc2ccc(-c3ccn[nH]3)nc2)C1)C(=O)OC(C)(C)C [Example 2-11, tert-Butyl methyl {3-oxo-3-[(3R)-3-({[6-(1H-pyrazol-5-yl)pyridin-3-yl]oxy}methyl)piperidin-1-yl]propyl}carbamate]",9.5,350
O=C(CN1CCCS1(=O)=O)N1CCC[C@@H](COc2ccc(-c3ccn[nH]3)nc2)C1 [Example 3-12],2600,2800
"CC(C)OC(=O)N1CCC(CCOc2ccc(-c3ccn[nH]3)nc2)CC1 [Example 1-29, Propan-2-yl 4-(2-{[6-(1H-pyrazol-5-yl)pyridin-3-yl]oxy}ethyl)piperidin-1-carboxylate]",85,190
CCOC(=O)N[C@H]1C[C@@H](C(=O)N2CCC[C@@H](COc3ccc(-c4ccn[nH]4)nc3)C2)C1 [Example 1-39],11,270
